In ChEMBL document CHEMBL4725455, “Use of Dihydroorotate Dehydrogenase Inhibitors for Treatment of Autoimmune Diseases and Cancer” (ACS Med Chem Lett, 2020):

target: Dihydroorotate dehydrogenase (quinone), mitochondrial (Homo sapiens, UniProt Q02127); test: Inhibition of DHODH (unknown origin) using L-dihydroorotic acid as substrate preincubated for 30 mins followed by substrate addition measured every 10 mins in presence of decylubiquinone by DCIP dye based coupled enzyme assay
Sequence (Q02127 whole entry): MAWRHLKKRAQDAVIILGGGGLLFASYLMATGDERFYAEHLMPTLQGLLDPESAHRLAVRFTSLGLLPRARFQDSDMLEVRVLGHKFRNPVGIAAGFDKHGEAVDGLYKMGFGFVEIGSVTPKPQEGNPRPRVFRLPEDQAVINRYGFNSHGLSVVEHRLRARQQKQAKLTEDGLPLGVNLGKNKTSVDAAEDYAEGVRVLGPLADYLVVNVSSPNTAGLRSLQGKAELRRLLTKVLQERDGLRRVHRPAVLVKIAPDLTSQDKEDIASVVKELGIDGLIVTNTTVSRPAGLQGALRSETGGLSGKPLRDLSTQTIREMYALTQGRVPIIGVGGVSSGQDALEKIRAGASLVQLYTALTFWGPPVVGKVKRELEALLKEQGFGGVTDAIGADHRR

Compound | IC50 [nM]
Cc1nc2c(C(=O)O)cc(-c3c(F)c(F)c(-c4ccc(CN5CCCC(F)(F)C5)cc4)c(F)c3F)cc2[nH]1 | 1
Cc1nc2c(C(=O)O)cc(-c3ccc(-c4ccccc4)cc3)cc2[nH]1 | 10
Cc1nc2c(C(=O)O)cc(-c3ccc(-n4c(C)ccc4C)cc3)cc2[nH]1 | 1
Cc1nc2c(C(=O)O)cc(-c3ccc(-c4ccccc4CN4CCCC4)cc3)cc2[nH]1 | 1
Cc1nc2c(C(=O)O)cc(-c3c(F)c(F)c(-c4ccccc4)c(F)c3F)cc2[nH]1 | 1
Cc1nc2c(C(=O)O)cc(-c3c(F)c(F)c(-c4ccc(CN5CCOCC5)cc4)c(F)c3F)cc2[nH]1 | 10
Cc1nc2c(C(=O)O)cc(-c3ccc(-c4ccc(O)cc4)cc3)cc2[nH]1 | 10
Cc1cccc(-c2ccc(-c3cc(C(=O)O)c4nc(C)[nH]c4c3)cc2)c1 | 1
